Experimental data published in US20100249082A1, “MODULATORS OF HYPOXIA INDUCIBLE FACTOR-1 AND RELATED USES” (Bionaut Pharmaceuticals INC., priority 2007, published 2010).

How the values were obtained:
[1] = cited from earlier work; for max. plasma concentration: in vivo
Na^+, K^+-ATPase [2] = target: T1, Na^+, K^+-ATPase (Homo sapiens, UniProt P05023); assay: cell-based; settings: for Rank order: HEK-293, ranked on potency (IC50 value); for inhibition at 0.01 µM / inhibition at 0.1 µM / inhibition at 1 µM / inhibition at 5 µM / inhibition at 10 µM / inhibition at 50 µM: HEK293, HEK-293; for inhibition at 0.01 µM: Log[drug](M) −8.0; for inhibition at 5 µM: Log[drug](M) −5.3; for inhibition at 10 µM: Log[drug](M) −5.0; for inhibition at 50 µM: Log[drug](M) −4.3; for Sample Solubility: HEK-293 screen test wells, 1% DMSO
T1 construct: The HEK-293 cell line endogenously expressing Na^+, K^+-ATPase; endogenous in cells; host or cells: HEK-293
Method: Cells were plated at a density of 50,000 cells/well in 96-well microplates and incubated at 37° C., 5% CO2 until 80-90% confluency was attained

HIF-1α expression = assay: Immunoblotting for hypoxia-mediated HIF-1α induction in human tumor cells (Caki-1, Panc-1); format: cell-based; settings: Caki-1 or Panc-1 cells under hypoxia
HIF-1α accumulation = assay: Western blot of HIF-1α induced by PHD inhibitor L-mimosone under normoxia in Hep3B cells; format: cell-based; settings: 200 μM L-mimosone for 18 hours, Western blotting
Method: Abundance of HIF1α and β-actin was determined by Western blotting.

[3] = Sample solubility noted in the rubidium uptake assay; format: physicochemical; settings: DMSO 1.0%
Na^+, K^+-ATPase [4] = target: Na^+, K^+-ATPase (Cricetulus griseus, UniProt A0A8C2N4Z0); assay: cell-based; settings: for inhibition at 0.5 µM / inhibition at 1 µM / inhibition at 5 µM / inhibition at 10 µM / inhibition at 50 µM / inhibition at 100 µM / inhibition at 200 µM / inhibition at 500 µM: CHO-K1; for remaining activity at 0.5 µM / remaining activity at 1 µM / remaining activity at 5 µM / remaining activity at 10 µM / remaining activity at 50 µM / remaining activity at 100 µM / remaining activity at 200 µM / remaining activity at 500 µM: CHO-K1, 0.5 h, read-out: Normalized Uptake (%)
Method: (§1) Compounds were screened using Ion Channel Research (ICR) technology and a non-radioactive Rubidium Uptake Assay
(§2) For all the test compounds and standard blockers, 100× solutions were used to prepare 1× test doses for Na^+, K^+-ATPase screen in CHO cell line. The final DMSO concentration in each well was 1%.
(§3) • 1. […] Rb^+ Uptake: Cells were washed with 200 μl of Rb^+ Uptake Buffer once and R^+ loaded by application of 198 μl R^+ Uptake Buffer. Compounds were added at 2 μl/well of a 100× stock solution in 100% DMSO in the uptake buffer followed by incubation for 30 minutes at room temperature (c. 22° C.). The total volume in each well was 200 μl (198 μl of R^+ Uptake Buffer and 2 μl of the 100× compound). The 100× compound solution gets diluted in R^+ Uptake Buffer to 1× and the DMSO to 1%. • 3. Wash: Residual R^+ and compound were removed by four successive washes with 200 μl of SPA-Wash Buffer. • 4. Cell Lysis: Intracellular samples were obtained by whole cell lysis with the application of 200 μl Lysis Solution. • 5. Analysis: The level of R^+ in the intracellular samples was measured by ICR8000 (Aurora Biomed Inc., Vancouver, Canada). using flame atomic absorption spectroscopy.

Na^+, K^+-ATPase [5] = assay: cell-based; settings: for Inhibition (%) / Normalized Uptake (%): CHO-K1; for Sample Solubility: CHO-K1 screen test wells, 1% DMSO
Method: as §1, §2, §3

| SMILES | max. plasma concentration [1] | IC50 (Na^+, K^+-ATPase [2]) [µM] | Rank order (Na^+, K^+-ATPase [2]) | IC50 (Na^+, K^+-ATPase [4]) [µM] | Sample Solubility (Na^+, K^+-ATPase [5]) | inhibition at 0.01 µM (Na^+, K^+-ATPase [2]) [%] | inhibition at 0.1 µM (Na^+, K^+-ATPase [2]; Log[drug](M) −7.0) [%] | inhibition at 0.1 µM (Na^+, K^+-ATPase [2]; Log[drug](M) −7.3) [%] | inhibition at 1 µM (Na^+, K^+-ATPase [2]; Log[drug](M) −6.0) [%] | inhibition at 1 µM (Na^+, K^+-ATPase [2]; Log[drug](M) −6.3) [%] | inhibition at 5 µM (Na^+, K^+-ATPase [2]) [%] | inhibition at 10 µM (Na^+, K^+-ATPase [2]) [%] | inhibition at 50 µM (Na^+, K^+-ATPase [2]) [%] | Sample Solubility (Na^+, K^+-ATPase [2]) | inhibition at 0.5 µM (Na^+, K^+-ATPase [4]) [%] | inhibition at 1 µM (Na^+, K^+-ATPase [4]) [%] | inhibition at 5 µM (Na^+, K^+-ATPase [4]) [%] | inhibition at 10 µM (Na^+, K^+-ATPase [4]) [%] | inhibition at 50 µM (Na^+, K^+-ATPase [4]) [%] | inhibition at 100 µM (Na^+, K^+-ATPase [4]) [%] | also measured |
| --- | --- | --- | --- | --- | --- | --- | --- | --- | --- | --- | --- | --- | --- | --- | --- | --- | --- | --- | --- | --- | --- |
| C[C@@H]1O[C@@H](O[C@H]2C[C@@H](O)[C@]3(CO)[C@H]4[C@H](O)C[C@]5(C)[C@@H](C6=CC(=O)OC6)CC[C@]5(O)[C@@H]4CC[C@]3(O)C2)[C@H](O)[C@H](O)[C@H]1O [BNC1, ouabain] | about 0.03 μg/mL |  |  |  |  |  |  |  |  |  |  |  |  |  |  |  |  |  |  |  |  |
| C[C@@H]1O[C@@H](O[C@@H]2C=C3CC[C@@H]4[C@H](CC[C@]5(C)[C@@H](c6ccc(=O)oc6)CC[C@]45O)[C@@]3(C)CC2)[C@H](O)[C@H](O)[C@H]1O [BNC4, proscillaridin, reference compound] | about 0.1 μg/mL | 0.24 | 1 | 46.4 | Good |  |  |  |  |  |  |  |  |  |  |  |  |  |  |  | Potency in inhibiting HIF-1α expression relative to BNC1 (HIF-1α expression): about 10 times; Effect on HIF-1α accumulation induced by L-mimosone (HIF-1α accumulation): eliminated HIF-1α accumulation; Sample Solubility [3]: Good; plasma half-life in human ([1]; human, according to the literature): about 40 hours; Inhibition (%) (Na^+, K^+-ATPase [5]; dose 0.50 uM): 1.3%; Normalized Uptake (%) (Na^+, K^+-ATPase [5]; dose 0.50 uM): 99.4%; Inhibition (%) (Na^+, K^+-ATPase [5]; dose 1.0 uM): 0.0%; Normalized Uptake (%) (Na^+, K^+-ATPase [5]; dose 1.0 uM): 100.3%; Inhibition (%) (Na^+, K^+-ATPase [5]; dose 5.0 uM): 9.0%; Normalized Uptake (%) (Na^+, K^+-ATPase [5]; dose 5.0 uM): 93.8%; Inhibition (%) (Na^+, K^+-ATPase [5]; dose 10 uM): 20.6%; Normalized Uptake (%) (Na^+, K^+-ATPase [5]; dose 10 uM): 80.5%; Inhibition (%) (Na^+, K^+-ATPase [5]; dose 50 uM): 51.8%; Normalized Uptake (%) (Na^+, K^+-ATPase [5]; dose 50 uM): 54.6%; Inhibition (%) (Na^+, K^+-ATPase [5]; dose 100 uM): 69.8%; Normalized Uptake (%) (Na^+, K^+-ATPase [5]; dose 100 uM): 44.0%; Inhibition (%) (Na^+, K^+-ATPase [5]; dose 200 uM): 86.7%; Normalized Uptake (%) (Na^+, K^+-ATPase [5]; dose 200 uM): 38.2%; Inhibition (%) (Na^+, K^+-ATPase [5]; dose 500 uM): 100.0%; Normalized Uptake (%) (Na^+, K^+-ATPase [5]; dose 500 uM): 28.7% |
| C[C@]12CCC(=NOCCN3CCOCC3)C=C1CCC1C2CC[C@]2(C)[C@@H](c3ccc(=O)oc3)CC[C@]12O (stereo partly drawn) [BP245, 3-[2-(Morpholinoethoxy)imino]-scillarinone] |  | 0.732 | 2 | 93.2 | Good | 0 | 22.1 | 8.3 | 56 | 36 | 92.3 | 94.1 | 100 | Good | 0 | 2.9 | 4.2 | 6.6 | 23.7 | 44.9 | inhibition at 200 µM (Na^+, K^+-ATPase [4]): 86.5%; inhibition at 500 µM (Na^+, K^+-ATPase [4]): 100%; remaining activity at 0.5 µM (Na^+, K^+-ATPase [4]): 98.9%; remaining activity at 1 µM (Na^+, K^+-ATPase [4]): 96.9%; remaining activity at 5 µM (Na^+, K^+-ATPase [4]): 96%; remaining activity at 10 µM (Na^+, K^+-ATPase [4]): 94.3%; remaining activity at 50 µM (Na^+, K^+-ATPase [4]): 82.4%; remaining activity at 100 µM (Na^+, K^+-ATPase [4]): 67.6%; remaining activity at 200 µM (Na^+, K^+-ATPase [4]): 38.7%; remaining activity at 500 µM (Na^+, K^+-ATPase [4]): 29.3% |
| C[C@]12CCC(=NOCCCN3CCCCC3)C=C1CCC1C2CC[C@]2(C)[C@@H](c3ccc(=O)oc3)CC[C@]12O (stereo partly drawn) [BP246, 3-[3-(Piperidinopropoxy)imino]-scillarinone] |  | 0.335 | 1 | 57.8 | Good | 0 | 28.5 | 13.9 | 79.1 | 48.5 | 96.3 | 96.1 | 100 | Good | 0 | 2.2 | 12 | 21.5 | 42 | 64.7 | inhibition at 200 µM (Na^+, K^+-ATPase [4]): 89.3%; inhibition at 500 µM (Na^+, K^+-ATPase [4]): 100%; remaining activity at 0.5 µM (Na^+, K^+-ATPase [4]): 95.3%; remaining activity at 1 µM (Na^+, K^+-ATPase [4]): 93.4%; remaining activity at 5 µM (Na^+, K^+-ATPase [4]): 84.8%; remaining activity at 10 µM (Na^+, K^+-ATPase [4]): 76.6%; remaining activity at 50 µM (Na^+, K^+-ATPase [4]): 58.7%; remaining activity at 100 µM (Na^+, K^+-ATPase [4]): 39%; remaining activity at 200 µM (Na^+, K^+-ATPase [4]): 17.5%; remaining activity at 500 µM (Na^+, K^+-ATPase [4]): 8.2% |
